Tests used:
human platelet membranes = target: T1, human platelet membranes (Homo sapiens, UniProt P31645); test: Platelet imipramine binding ([3H]-imipramine); set-up: key to Platelet Imipramine Binding, Result: Active: A compound is considered active if greater than about 50% inhibition is achieved at a concentration of about 10 μM; conditions: 10 μM test compound, 60 min at 0° C.; for inhibition at 10 µM: [3H]imipramine
T1 construct: from tissue; host or cells: human platelets (membranes of sonicated platelet concentrates)
T1 sequence (P31645 whole entry): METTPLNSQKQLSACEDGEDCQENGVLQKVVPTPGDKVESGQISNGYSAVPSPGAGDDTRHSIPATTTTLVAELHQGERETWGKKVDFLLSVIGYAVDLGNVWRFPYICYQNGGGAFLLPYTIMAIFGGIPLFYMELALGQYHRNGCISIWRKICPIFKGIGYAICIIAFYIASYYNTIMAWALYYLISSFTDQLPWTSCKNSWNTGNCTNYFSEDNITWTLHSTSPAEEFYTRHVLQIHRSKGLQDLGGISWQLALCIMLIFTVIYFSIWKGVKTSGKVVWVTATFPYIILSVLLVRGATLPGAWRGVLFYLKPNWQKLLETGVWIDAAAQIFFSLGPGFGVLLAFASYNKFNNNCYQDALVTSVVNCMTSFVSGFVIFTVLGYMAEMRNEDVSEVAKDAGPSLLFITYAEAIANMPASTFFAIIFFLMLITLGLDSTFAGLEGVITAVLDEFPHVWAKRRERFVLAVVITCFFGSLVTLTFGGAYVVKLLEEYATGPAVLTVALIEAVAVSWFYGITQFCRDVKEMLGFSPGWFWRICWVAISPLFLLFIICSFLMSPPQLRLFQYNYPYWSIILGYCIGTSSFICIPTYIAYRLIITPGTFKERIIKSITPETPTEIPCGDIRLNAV
Protocol: The activity of the compounds of this invention as anti-depressant agents was also shown in the following test which measures the ability of a test compound to inhibit [^3 H]-imipramine binding to human platelet membranes. Human platelet concentrates were diluted about 1:20 with antiprotease containing buffer of the following composition:
Approximately 0.12M: sodium chloride
Approximately 0.05M: tris buffer
Approximately 0.005N: potassium chloride
Approximately 0.025: μg/ml aprotinin
Approximately 0.5: μg/ml pepstatin
Approximately 2×10^-5 N: bacitracin
Approximately 3 mN: ethylenediaminetetraacetic acid
Approximately 1 mN: ethyleneglycol-bis-(β-aminoethyl ether)-N,N'-tetracetic acid
Such buffer was kept at about pH 6.8 to prevent platelet release and aggregation. The diluted platelets were centrifuged at about 2,500 g and then resuspended in about 50 volumes of the same buffer. The cells were then ruptured with a Branson sonicator while the suspension was maintained in an ice bath. The ruptured cells were then centrifuged at about 18,000 g, resuspended in fresh buffer and recentrifuged at about 18,000 g. The resulting membranes were then diluted with the above antiprotease buffer, which had been adjusted to about pH 7.4, and to a protein concentration of about 3.0 mg/ml.
The test compounds were dissolved in dimethylsulfoxide at a concentration of about 50 mM and then diluted about 1:10 in either water, about 0.1M hydrochloric acid or about 0.1M sodium hydroxide. They were then diluted about 1:100 in buffer to about 50 μM, and about 50 μl of this stock solution was placed in triplicate test tubes. The tubes were cooled to about 0° C. and about 200 μl of the following mixture were added:
About 100 μl of 3 mg/ml membrane in buffer
About 50 μl of 15 nM[^3 H]imipramine in buffer
The tubes were incubated for about 60 minutes at about 0° C. Controls contain either buffer alone (100%) or about 10 μM final of desmethylimipramine (DMI). The samples were diluted with about 5 ml of buffer [0.12M-sodium chloride, 0.05M-tris buffer, 0.005M-potassium chloride (pH 7.4)], vacuum filtered and washed twice with about 5 ml of buffer. Radioactivity was measured in a liquid scintillation counter and the degree of binding was calculated.

mice [1] = test: Tetrabenazine-induced depression (exploratory behavior); assay type: in vivo; set-up: key to Tetrabenazine-Induced Depression, Result: Active: A compound is considered active if 3 or more of the 10 mice are protected against the tetrabenazine-induced effects; conditions: about 25 mg/kg i.p., 30 min before tetrabenazine methanesulfonate about 39 mg/kg i.p.; for Tetrabenazine-Induced Depression, mice protected of 10: protected/tested; for Tetrabenazine-Induced Depression, Result: tested 30 min later
Protocol: The compounds of this invention are useful as anti-depressant agents in warm-blooded animals. The anti-depressant properties of these compounds were tested by measuring their ability to counteract depression induced in such animals by the administration of tetrabenazine methanesulfonate. Each test compound was administered intraperitoneally to 10 mice at a dose of about 25 mg/kg of body weight. Approximately thirty minutes later, tetrabenazine methanesulfonate was administered intraperitoneally to each mouse at a dose of about 39 mg/kg of body weight, which dose is known to depress markedly the exploratory behavior of normal mice. Approximately thirty minutes later, the mice were tested for their exploratory behavior as described by E. Greenblatt and A. C. Osterberg, Toxicology and Applied Pharmacology, 7: 556-578 (1965). A compound is considered active if 3 or more of the 10 mice are protected against the tetrabenazine-induced effects.

mice [2] = test: Tetrabenazine-induced ptosis; assay type: in vivo; set-up: key to Tetrabenazine-Induced Ptosis, Result: Active: A compound is considered active if 5 or more of 10 mice respond; conditions: about 25 mg/kg i.p.; for Tetrabenazine-Induced Ptosis, Result: 30 min before tetrabenazine methanesulfonate about 39 mg/kg i.p., examined 30 min later; for Tetrabenazine-Induced Ptosis, mice responding of 10: responders (about 75% or greater opening of palpebral aperture)/tested
Protocol: Inhibition of tetrabenazine-induced ptosis is observed concomitantly with the inhibition of tetrabenazine-induced depression. Ptosis is defined as more than about 75% closure of palpebral aperture induced in animals by the administration of tetrabenazine methanesulfonate. The compounds were administered intraperitoneally at a dosage of about 25 mg per kilogram of body weight to groups of 10 mice. About thirty minutes later, tetrabenazine methanesulfonate was administered intraperitoneally to each mouse at a dose of about 39 mg/kg. About thirty minutes after the injection of tetrabenazine, the mice were placed on an observation disc and examined for approximately 10 seconds for inhibition of ptosis. […] A compound is considered active if 5 or more of 10 mice respond.

Row | Structure (SMILES) | Platelet Imipramine Binding, Result (human platelet membranes) | inhibition at 10 µM (human platelet membranes) [%] | Tetrabenazine-Induced Depression, mice protected of 10 (mice [1]) | Tetrabenazine-Induced Depression, Result (mice [1]) | Tetrabenazine-Induced Ptosis, Result (mice [2]) | Tetrabenazine-Induced Ptosis, mice responding of 10 (mice [2])
1 | CCO[C@@H]1C[C@@H]2CN(C)C[C@@]21c1cccc(OC)c1 (relative stereo) [7α-Ethoxy-1β-(m-methoxyphenyl)-3-methyl-3-azabicyclo[3.2.0]heptane] | Active | 92 |  |  |  | 
2 | CCO[C@H]1C[C@@H]2CN(C)C[C@@]21c1cccc(OC)c1 (relative stereo) [7β-Ethoxy-1β-(m-methoxyphenyl)-3-methyl-3-azabicyclo[3.2.0]heptan] | Active | 94 | 3/10 | Active | Active | 9/10
3 | COc1cccc(C23CCC2CN(C)C3)c1.O.O=C(O)/C=C/C(=O)O (centres unmarked) [1-(m-Methoxyphenyl)-3-methyl-3-azabicyclo[3.2.0]heptane, and fumarate salt monohydrate] | Active | 99.8 |  |  |  | 
4 | Cc1ccc(C23CCC2CN(C)C3)cc1.O=C(O)/C=C/C(=O)O (centres unmarked) [1-(p-Methylphenyl)-3-methyl-3-azabicyclo[3.2.0]heptane, and fumarate salt] |  |  | 5/10 | Active | Active | 10/10

— patent US4544665A, “1-Aryl-3-azabicyclo[3.2.0]heptanes” (American Cyanamid Company, priority 1983, dated 1985)
